The source of these data is patent US8637670B2, “Imidazo [4,5-C]quinoline derivatives and their use in the treatment of tumors and/or inflammation” (Piramal Enterprises Limited, priority 2009, dated 2014).

pIC50: −log10 of the molar value.

In one experiment the test system is mTOR. In words: mTOR activity assay (cell-based). As to conditions: Homo sapiens, Ovarian cell line A2780. As to the method: The assay was designed as in the reference, Biochemical Journal, 2000, 350, 717-722, the disclosure of which is incorporated by reference for the teaching of the assay.
Seed cells (Ovarian cell line A2780, ATCC) were plated in a 96 well microtitre plate at a density of 50,000 cells/cm^2 in appropriate complete cell culture medium. The cells were allowed to adhere for 18-24 hours. The cells were allowed to starve for 24 hours. The cells were pretreated (in triplicates) with the compounds of Example 1-40 (stock solution was prepared in DMSO and subsequent dilutions were made in kinase buffer) at a concentration of 10 μM for one hour. Then the cells were stimulated with 20% FCS for 30 minutes. A typical assay would consist of a set of unstimulated cells, a set of stimulated cells and a set of cells treated with compounds of Example 1-40 and a set of cells treated with the stimulator. The medium was discarded. The cells were fixed with 100 μL of 3.7% formaldehyde for 15 minutes. The formaldehyde was discarded by inverting the plate and tapping it on a thick tissue paper layer to remove traces. The cells were washed and permeabilized with 200 μL PBS+Triton-X 100 solution (hereafter referred to as PBS-Triton, containing 0.1% triton-X 100 in 1×PBS) three times, incubating the cells each time for 5 minutes. 100 μL blocking solution (10% FCS in PBS-Triton) was added and incubated for 1 hour at 25° C. The blocking solution was discarded and cells were incubated with the primary antibody in PBS-Triton at a dilution of 1:500 for 1 hour at RT (25° C.). [The primary antibody is Phospho-AKT (Ser 473); Cell Signaling; USA, Cat. No. 9271]. The primary antibody solution was discarded and the cells were washed 3 times with PBS-Triton solution and incubated with the HRP-conjugated secondary antibody in PBS-Triton at a dilution of 1:500 for 1 hour at RT (25° C.). The cells were washed 3 times with PBS-Triton followed by two washes with PBS (to remove traces of triton-X 100). The OPD (o-phenylene diamine dihydrochloride) substrate was prepared for detection of the signal by dissolving one tablet set (two tablets) of SigmaFast OPD (Sigma, USA, Cat No. P9187) in 20 mL distilled water. It should be kept protected from light. 100 μL OPD solutions was added to the wells and the plate was incubated in the dark for 3-5 minutes (depending upon the development of the color). The reaction was stopped by adding 50 μL 2 NH2SO4. The absorbance was measured at 490 nm. The values were expressed in the treated samples, in terms of percentage or fold decrease in AKT phosphorylation with respect to the induced sample. PI-103 (Calbiochem, USA) was used as a standard.

A further experiment deals with A549. In words: Cytotoxicity, propidium iodide assay, A549. The following applies: Homo sapiens; Lung, A549, 48 hours treatment; read-out: IC50, C1a (A549). Format: cell-based. An outline of the steps:
(§1)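 Cells seeded at 3000/well, grown 18–24 h at 37 °C/5% CO2, then exposed 48 h to compound dilutions from DMSO stock. Washed cells stained with 7 μg/ml propidium iodide, frozen at −70 °C ≥24 h, thawed and fluorescence read. Viability relative to untreated wells (100%); IC50 from plotted percentages.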

The next experiment deals with H460. In words: Cytotoxicity, propidium iodide assay, H460. Format: cell-based. The following applies: Homo sapiens, NCI-H460; Lung, H460, 48 hours treatment; read-out: IC50, C1b (H460). The method, boiled down: as §1
A further experiment relates to A2780. In words: Cytotoxicity, propidium iodide assay, A2780. The format is cell-based. As to conditions: Homo sapiens; Ovarian, A2780, 48 hours treatment; read-out: IC50, C3a (A2780). An outline of the steps:
as §1

In a further experiment the test system is OVCAR 3. In words: Cytotoxicity, propidium iodide assay, OVCAR 3. The format is cell-based. As to conditions: Homo sapiens; Ovarian, OVCAR 3, 48 hours treatment; read-out: IC50, C3b (OVCAR 3). The method, boiled down:
as §1

The subject of the next experiment is HCT116. In words: Cytotoxicity, propidium iodide assay, HCT116. Format: cell-based. The following applies: Homo sapiens, HCT-116; Colon, HCT116, 48 hours treatment; read-out: IC50, C4a (HCT116). The method, boiled down:
as §1

The test system of another experiment is AsPC 1. In words: Cytotoxicity, propidium iodide assay, AsPC 1. Format: cell-based. As to conditions: Homo sapiens, ASPC1; Pancreatic, AsPC 1, 48 hours treatment; read-out: IC50, C5b (AsPC 1). As to the method:
The assay was designed as in the reference, Anticancer Drugs, 2002, 13, 1-8, the disclosure of which is incorporated by reference for the teaching of the assay.
Cells from cell lines as mentioned in the table given below were seeded at a density of 3000 cells/well in a white opaque 96-well plate. Following incubation at 37° C./5% CO2 for a period of 18-24 hours, the cells were treated with various concentrations (stock solution was prepared in DMSO and subsequent dilutions were made in media as per ATCC guidelines) of the compounds of Example 1-40 was for a period of 48 hours. At the end of treatment, the spent culture medium was discarded, the cells were washed with 1×PBS and 200 μl of 7 μg/ml propidium iodide was added to each well. The plates were frozen at −70° C. for at least 24 hours. For analysis, the plates were brought to RT, allowed to thaw and were read in PoleStar fluorimeter with the fluorescence setting. The percentage of viable cells in the non-treated set of wells was considered to be 100 and the percentage viability following treatment was calculated accordingly. IC50 values were calculated from graphs plotted using these percentages. Table 4 depicts the IC50 values of compounds of Example 1-40 in individual cell lines.
The abbreviations for the Cell Lines as used in Table 4 are: […]

The next experiment deals with U 373. In words: Cytotoxicity, propidium iodide assay, U 373. Format: cell-based. The following applies: Homo sapiens, U373 MG; Glioblastoma, U 373, 48 hours treatment; read-out: IC50, C7a (U 373). An outline of the steps:
as §1

For the compound `C/C=C/C(=O)n1c(=O)n(-c2ccc(C(C)(C)C#N)cc2)c2c3cc(Cl)ccc3ncc21` [Example 38, (E)-2-(4-(3-But-2-enoyl-8-chloro-2-oxo-2,3-dihydro-1H-imidazo[4,5-c]quinolin-1-yl)phenyl)-2-methylpropanenitrile], in the experiment with mTOR, the inhibition at 10 µM was more than 50%. The pIC50 in the experiment with A549 is not below 6.00; in the experiment on H460, not below 6.00; with A2780, less than 5.52; in the experiment on OVCAR 3 it was not below 6.00; with HCT116, less than 5.52; in the experiment with AsPC 1 it was not below 6.00.
In the experiment with mTOR, `CC(C)(C#N)c1ccc(-n2c(=O)n(C(=O)c3ccccc3)c3cnc4ccc(Cl)cc4c32)cc1` [Example 37, 2-(4-(3-Benzoyl-8-chloro-2-oxo-2,3-dihydro-1H-imidazo[4,5-c]quinolin-1-yl)phenyl)-2-methylpropanenitrile] yielded an inhibition at 10 µM of 10 to 50%. For the same compound, the negative-log IC50 (pIC50) was 5.52 to 6.00 in the experiment with A549; 5.52 to 6.00 in the experiment on H460; 5.52 to 6.00 in the experiment with OVCAR 3; less than 5.52 with HCT116; less than 5.52 in the experiment on U 373.
Consider `C/C=C/C(=O)n1c(=O)n(-c2ccc(C(C)(C)C#N)cc2)c2c3cc(Br)ccc3ncc21` [Example 27, (E)-2-(4-(8-Bromo-3-but-2-enoyl-2-oxo-2,3-dihydro-1H-imidazo[4,5-c]quinolin-1-yl)phenyl)-2-methylpropanenitrile], for which the inhibition at 10 µM in the experiment on mTOR was more than 50%. The pIC50 was not below 6.00 in the experiment with A549; not below 6.00 in the experiment on H460; less than 5.52 with A2780; not below 6.00 in the experiment on OVCAR 3; 5.52 to 6.00 with HCT116; not below 6.00 with AsPC 1.
In the case of `CC(C)(C#N)c1ccc(-n2c(=O)n(C(=O)c3ccccc3)c3cnc4ccc(Br)cc4c32)cc1` [Example 30, 2-(4-(3-Benzoyl-8-bromo-2-oxo-2,3-dihydro-1H-imidazo[4,5-c]quinolin-1-yl)phenyl)-2-methylpropanenitrile], in the experiment on mTOR, the inhibition at 10 µM was 10 to 50%. The pIC50 in the experiment on A549 is 5.52 to 6.00; in the experiment with H460, not below 6.00; with A2780 it was not below 6.00; in the experiment with OVCAR 3 it was not below 6.00; with HCT116 it was not below 6.00; in the experiment with AsPC 1, 5.52 to 6.00. Also, the negative-log IC50 (pIC50) in the experiment on U 373 was not below 6.00.
For `Cc1cccc(S(=O)(=O)n2c(=O)n(-c3ccc(C(C)(C)C#N)cc3)c3c4cc(Br)ccc4ncc32)c1` [Example 3, 2-(4-(8-Bromo-2-oxo-3-(m-tolylsulfonyl)-2,3-dihydro-1H-imidazo[4,5-c]quinolin-1-yl)phenyl)-2-methylpropanenitrile], the negative logarithm of the IC50 (pIC50) was 5.52 to 6.00 in the experiment on A549; not below 6.00 in the experiment on H460; not below 6.00 in the experiment with A2780; 5.52 to 6.00 with OVCAR 3; 5.52 to 6.00 with HCT116; 5.52 to 6.00 in the experiment on AsPC 1. Moreover, the negative logarithm of the IC50 (pIC50) in the experiment on U 373 is less than 5.52.

A word on the inhibition: it is the drop in the measured response relative to a control, in per cent. A high value points to a response far below the control. One may read the pIC50 as the negative decadic logarithm of the IC50, by convention in mol/L.
